Results on 21 compounds are retold here after patent publication US20170197979A1, “BENZOTHIADIAZOLAMINES” (BAYER PHARMA AKTIENGESELLSCHAFT, priority 2014, published 2017).

What is called IC50 is the midpoint of a concentration-inhibition curve.

The target in one test is T1, human full-length MKNK1 (Homo sapiens, UniProt Q9BUB5, T385D).
T1 construct: GST (N); purchased Carna Biosciences 02-145; host or cells: insect cells (baculovirus expression system)
T1 sequence (Q9BUB5 1-424 isoform Q9BUB5-2 T344D): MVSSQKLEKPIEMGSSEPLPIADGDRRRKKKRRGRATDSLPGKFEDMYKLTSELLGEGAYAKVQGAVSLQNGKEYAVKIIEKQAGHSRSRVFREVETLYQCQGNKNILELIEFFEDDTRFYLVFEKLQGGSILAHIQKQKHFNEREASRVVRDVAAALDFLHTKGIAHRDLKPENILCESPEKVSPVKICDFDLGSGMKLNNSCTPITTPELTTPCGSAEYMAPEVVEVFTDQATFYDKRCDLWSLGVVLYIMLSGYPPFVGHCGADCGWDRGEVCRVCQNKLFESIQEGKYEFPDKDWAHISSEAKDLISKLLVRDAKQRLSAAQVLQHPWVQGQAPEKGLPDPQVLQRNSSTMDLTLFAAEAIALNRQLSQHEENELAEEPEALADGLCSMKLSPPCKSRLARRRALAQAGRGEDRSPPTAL
Nature of the test: MKNK1 kinase high ATP assay (TR-FRET). The test is classed as biochemical.
Conditions: not given
The method, then: MKNK1 Kinase High ATP Assay
MKNK1-inhibitory activity at high ATP of compounds of the present invention after their preincubation with MKNK1 was quantified employing the TR-FRET-based MKNK1 high ATP assay as described in the following paragraphs.
A recombinant fusion protein of Glutathione-S-Transferase (GST, N-terminally) and human full-length MKNK1 (amino acids 1-424 and T344D of accession number BAA 19885.1), expressed in insect cells using baculovirus expression system and purified via glutathione sepharose affinity chromatography, was purchased from Carna Biosciences (product no 02-145) and used as enzyme. As substrate for the kinase reaction the biotinylated peptide biotin-Ahx-IKKRKLTRRKSLKG (C-terminus in amide form) was used, which can be purchased e.g. from the company Biosyntan (Berlin-Buch, Germany).
For the assay 50 nL of a 100 fold concentrated solution of the test compound in DMSO was pipetted into a black low volume 384 well microtiter plate (Greiner Bio-One, Frickenhausen, Germany), 2 μL of a solution of MKNK1 in aqueous assay buffer [50 mM HEPES pH 7.5, 5 mM MgCl2, 1.0 mM dithiothreitol, 0.005% (v/v) Nonidet-P40 (Sigma)] was added and the mixture was incubated for 15 min at 22° C. to allow pre-binding of the test compounds to the enzyme before the start of the kinase reaction. Then the kinase reaction was started by the addition of 3 μL of a solution of adenosine-tri-phosphate (ATP, 3.3 mM=>final conc. in the 5 μL assay volume is 2 mM) and substrate (0.1 μM=>final conc. in the 5 μL assay volume is 0.06 μM) in assay buffer and the resulting mixture was incubated for a reaction time of 30 min at 22° C. The concentration of MKNK1 was adjusted depending of the activity of the enzyme lot and was chosen appropriate to have the assay in the linear range, typical concentrations were in the range of 0.003 μg/mL. The reaction was stopped by the addition of 5 μL of a solution of TR-FRET detection reagents (5 nM streptavidine-XL665 [Cisbio Bioassays, Codolet, France] and 1 nM anti-ribosomal protein S6 (pSer236)-antibody from Invitrogen [#44921G] and 1 nM LANCE EU-W1024 labeled ProteinG [Perkin-Elmer, product no. AD0071]) in an aqueous EDTA-solution (100 mM EDTA, 0.1% (w/v) bovine serum albumin in 50 mM HEPES pH 7.5).
The resulting mixture was incubated for 1 h at 22° C. to allow the formation of complex between the phosphorylated biotinylated peptide and the detection reagents. Subsequently the amount of phosphorylated substrate was evaluated by measurement of the resonance energy transfer from the Eu-chelate to the streptavidine-XL. Therefore, the fluorescence emissions at 620 nm and 665 nm after excitation at 350 nm were measured in a TR-FRET reader, e.g. a Rubystar (BMG Labtechnologies, Offenburg, Germany) or a Viewlux (Perkin-Elmer). The ratio of the emissions at 665 nm and at […] was taken as the measure for the amount of phosphorylated substrate. The data were normalised (enzyme reaction without inhibitor=0% inhibition, all other assay components but no enzyme=100% inhibition).
For `O=C1CCN(C(=O)[C@H]2CCc3c(sc4ncnc(Nc5ccc6nnsc6c5)c34)C2)CC1` [Example 16, 1-{[(7S)-4-(1,2,3-Benzothiadiazol-6-ylamino)-5,6,7,8-tetrahydro[1]benzothieno[2,3-d]pyrimidin-7-yl]carbonyl}piperidin-4-one], 15 nM corresponded to half-maximal inhibition (IC50).

The test is the same for the next values; noted with them: TR-FRET, high ATP (2 mM final), 15 min preincubation with enzyme, GST-MKNK1 (T344D); read-out: MKNK1 IC50.
With `C[C@@H]1CN(C(=O)[C@H]2CCc3c(sc4ncnc(Nc5ccc6nnsc6c5)c34)C2)C[C@H](C)O1` [Example 3, [(7S)-4-(1,2,3-Benzothiadiazol-6-ylamino)-5,6,7,8-tetrahydro[1]benzothieno[2,3-d]pyrimidin-7-yl][(2R,6S)-2,6-dimethylmorpholin-4-yl]methanone], the half-maximal inhibitory concentration (IC50) worked out at 13 nM.

With `O=C([C@H]1CCc2c(sc3ncnc(Nc4ccc5nnsc5c4)c23)C1)N1CCC(F)(F)C1` [Example 17, [(7S)-4-(1,2,3-Benzothiadiazol-6-ylamino)-5,6,7,8-tetrahydro[1]benzothieno[2,3-d]pyrimidin-7-yl](3,3-difluoropyrrolidin-1-yl)methanone], the IC50 turned out to be 11 nM.

Regarding `CN(C)C(=O)CN(C)C(=O)[C@H]1CCc2c(sc3ncnc(Nc4ccc5nnsc5c4)c23)C1` [Example 29, (7S)-4-(1,2,3-Benzothiadiazol-6-ylamino)-N-[2-(dimethylamino)-2-oxoethyl]-N-methyl-5,6,7,8-tetrahydro[1]benzothieno[2,3-d]pyrimidine-7-carboxamide], the half-maximal inhibitory concentration (IC50) is 7 nM.

On to `COc1cc2nnsc2cc1Nc1ncnc2sc3c(c12)CC[C@H](C(=O)N(C)CCCN(C)C)C3` [Example 43, (7S)—N-[3-(Dimethylamino)propyl]-4-[(5-methoxy-1,2,3-benzothiadiazol-6-yl)amino]-N-methyl-5,6,7,8-tetrahydro[1]benzothieno[2,3-d]pyrimidine-7-carboxamide], for which the half-maximal inhibitory concentration (IC50) came out at 1.7 nM.

Regarding `COc1cc2nnsc2cc1Nc1ncnc2sc3c(c12)CC[C@H](C(=O)N1C[C@H]2C[C@@H]1CN2C)C3` [Example 58, {(7S)-4-[(5-Methoxy-1,2,3-benzothiadiazol-6-yl)amino]-5,6,7,8-tetrahydro[1]benzothieno[2,3-d]pyrimidin-7-yl}[(1R,4R)-5-methyl-2,5-diazabicyclo[2.2.1]hept-2-yl]methanone], the IC50 stood at 1.9 nM.

On to `COc1cc2nnsc2cc1Nc1ncnc2sc3c(c12)CC[C@H](C(=O)NCCC(F)(F)F)C3` [Example 56, (7S)-4-[(5-Methoxy-1,2,3-benzothiadiazol-6-yl)amino]-N-(3,3,3-trifluoropropyl)-5,6,7,8-tetrahydro[1]benzothieno[2,3-d]pyrimidine-7-carboxamide], for which the IC50 is 7.3 nM.

As to `O=C([C@H]1CCc2c(sc3ncnc(Nc4ccc5nnsc5c4)c23)C1)N1CC(O)C1` [Example 32, [(7S)-4-(1,2,3-Benzothiadiazol-6-ylamino)-5,6,7,8-tetrahydro[1]benzothieno[2,3-d]pyrimidin-7-yl](3-hydroxyazetidin-1-yl)methanone], the 50% inhibitory concentration (IC50) turned out to be 33 nM.

`CN1C[C@@H]2C[C@H]1CN2C(=O)[C@H]1CCc2c(sc3ncnc(Nc4ccc5nnsc5c4)c23)C1` [Example 19, [(7S)-4-(1,2,3-Benzothiadiazol-6-ylamino)-5,6,7,8-tetrahydro[1]benzothieno[2,3-d]pyrimidin-7-yl][(1S,4S)-5-methyl-2,5-diazabicyclo[2.2.1]hept-2-yl]methanone]: the IC50 was 20 nM.

As for `C[C@@H]1COCCN1C(=O)[C@H]1CCc2c(sc3ncnc(Nc4ccc5nnsc5c4)c23)C1` [Example 4, [(7S)-4-(1,2,3-Benzothiadiazol-6-ylamino)-5,6,7,8-tetrahydro[1]benzothieno[2,3-d]pyrimidin-7-yl][(3R)-3-methylmorpholin-4-yl]methanone], the IC50 came to 11 nM.

Take `COc1cc2nnsc2cc1Nc1ncnc2sc3c(c12)CC[C@H](C(=O)N1C[C@@H]2C[C@H]1CN2C)C3` [Example 53, {(7S)-4-[(5-Methoxy-1,2,3-benzothiadiazol-6-yl)amino]-5,6,7,8-tetrahydro[1]benzothieno[2,3-d]pyrimidin-7-yl}[(1S,4S)-5-methyl-2,5-diazabicyclo[2.2.1]hept-2-yl]methanone]: the concentration for half-maximal inhibition (IC50) was 3.8 nM.

`COc1cc2nnsc2cc1Nc1ncnc2sc3c(c12)CC[C@H](C(=O)N1CC(N2CCCCC2)C1)C3` [Example 54, {(7S)-4-[(5-Methoxy-1,2,3-benzothiadiazol-6-yl)amino]-5,6,7,8-tetrahydro[1]benzothieno[2,3-d]pyrimidin-7-yl}[3-(piperidin-1-yl)azetidin-1-yl]methanone]: the IC50 is 9.2 nM.

Turning to `C[C@H]1CN(C(=O)[C@H]2CCc3c(sc4ncnc(Nc5ccc6nnsc6c5)c34)C2)C[C@H](C)O1` [Example 10, [(7S)-4-(1,2,3-Benzothiadiazol-6-ylamino)-5,6,7,8-tetrahydro[1]benzothieno[2,3-d]pyrimidin-7-yl][(2S,6S)-2,6-dimethylmorpholin-4-yl]methanone], the concentration for half-maximal inhibition (IC50) was 5 nM.

For the compound `CN(C)C1CN(C(=O)[C@H]2CCc3c(sc4ncnc(Nc5ccc6nnsc6c5)c34)C2)C1` [Example 14, [(7S)-4-(1,2,3-Benzothiadiazol-6-ylamino)-5,6,7,8-tetrahydro[1]benzothieno[2,3-d]pyrimidin-7-yl][3-(dimethylamino)azetidin-1-yl]methanone], the 50% inhibitory concentration (IC50) was determined as 26 nM.

For `O=C([C@H]1CCc2c(sc3ncnc(Nc4ccc5nnsc5c4)c23)C1)N1CCC1` [Example 24, Azetidin-1-yl[(7S)-4-(1,2,3-benzothiadiazol-6-ylamino)-5,6,7,8-tetrahydro[1]benzothieno[2,3-d]pyrimidin-7-yl]methanone], the concentration for half-maximal inhibition (IC50) was 33 nM.

Regarding `CN1C[C@H]2C[C@@H]1CN2C(=O)[C@H]1CCc2c(sc3ncnc(Nc4ccc5nnsc5c4)c23)C1` [Example 59, [(7S)-4-(1,2,3-Benzothiadiazol-6-ylamino)-5,6,7,8-tetrahydro[1]benzothieno[2,3-d]pyrimidin-7-yl][(1R,4R)-5-methyl-2,5-diazabicyclo[2.2.1]hept-2-yl]methanone], the IC50 came to 3.2 nM.

With `CN(C)[C@H]1CCN(C(=O)[C@H]2CCc3c(sc4ncnc(Nc5ccc6nnsc6c5)c34)C2)C1` [Example 13, [(7S)-4-(1,2,3-Benzothiadiazol-6-ylamino)-5,6,7,8-tetrahydro[1]benzothieno[2,3-d]pyrimidin-7-yl][(3S)-3-(dimethylamino)pyrrolidin-1-yl]methanone], the IC50 was 6.1 nM.

In the case of `CN1CCN(C(=O)[C@H]2CCc3c(sc4ncnc(Nc5ccc6nnsc6c5)c34)C2)CC1` [Example 34, [(7S)-4-(1,2,3-Benzothiadiazol-6-ylamino)-5,6,7,8-tetrahydro[1]benzothieno[2,3-d]pyrimidin-7-yl](4-methylpiperazin-1-yl)methanone], the IC50 was determined as 13 nM.

For `CN(CC(C)(C)O)C(=O)[C@H]1CCc2c(sc3ncnc(Nc4ccc5nnsc5c4)c23)C1` [Example 27, (7S)-4-(1,2,3-Benzothiadiazol-6-ylamino)-N-(2-hydroxy-2-methylpropyl)-N-methyl-5,6,7,8-tetrahydro[1]benzothieno[2,3-d]pyrimidine-7-carboxamide], the IC50 is 15 nM.

For `COc1cc2nnsc2cc1Nc1ncnc2sc3c(c12)CC[C@H](C(=O)N1CC[C@H](N(C)C)C1)C3` [Example 51, [(3S)-3-(Dimethylamino)pyrrolidin-1-yl]{(7S)-4-[(5-methoxy-1,2,3-benzothiadiazol-6-yl)amino]-5,6,7,8-tetrahydro[1]benzothieno[2,3-d]pyrimidin-7-yl}methanone], the IC50 is 3.3 nM.

For the compound `CCN(CCO)C(=O)[C@H]1CCc2c(sc3ncnc(Nc4cc5snnc5cc4OC)c23)C1` [Example 38, (7S)—N-Ethyl-N-(2-hydroxyethyl)-4-[(5-methoxy-1,2,3-benzothiadiazol-6-yl)amino]-5,6,7,8-tetrahydro[1]benzothieno[2,3-d]pyrimidine-7-carboxamide], the IC50 was determined as 1.1 nM.
